Columns and labels:
[1] = tested on: sprouting root and tuber crops, bulb crops, ornamentals; assay: Effect on sprouting crops; format: in vivo
[2] = tested on: potato tubers; conditions: J. Zalewsky, personal communication; cited from earlier work
[3] = tested on: ABA levels; conditions: Campbell et al. 2010; cited from earlier work
[4] = tested on: potato meristem transcripts; assay: Microarray transcriptional profiling (POCI 44K oligo array) of potato meristems; format: cell-based, potato (Russet Burbank)
Experimental: On the day of treatment, tubers were transferred from 3° to 20° C. and were immediately washed in running tap water. After drying at room temperature in the dark, the tubers were placed into 4 L airtight containers. A beaker containing about 5 g of activated charcoal was placed in the chamber containing the control tubers prior to sealing (Control). DMN (0.15 mL liquid) was placed on cotton wool in a beaker and sealed in the treatment chamber (DMN3 days). The chambers were incubated in the dark at 20° C. for three days. At this time tubers were removed and the lateral meristems were isolated using a curette with the aid of a dissecting microscope. […] One group of DMN-treated tubers was incubated for a further two days in air (dark, 20° C.) prior to meristem isolation (DMN3 days+2).
RNA was isolated from frozen meristems by grinding to a fine powder in a mortar and pestle followed by isolation and purification using a Ribopure Kit (www.ambio.com). RNA was quantified using a BioSpec nano and quality was assessed by gel electrophoresis and visualization of ribosomal RNA. Total RNA (500 ng) was denatured in the presence of a T7 promoter primer and cDNA was synthesized using reverse transcriptase. The cDNA was used as a template for in vitro transcription by synthesis with T7RNA polymerase, which amplified target material and incorporated cyanine 3-labeled CTP. The labeled cRNA was purified using spin columns and quantified using a spectrophotometer. […] Probe generation and hybridization to the array were conducted through a contract to Gene Logic (www.genelogic.com). Twelve samples were used to probe against the POCI array, three samples from eco-dormant meristems (harvested directly from 3° C. storage), three samples from meristems isolated from tubers treated with DMN for three days in a closed container, three samples treated with water for three days in a closed container, three samples treated with DMN for three days and then exposed to air for two days. The three samples for each treatment were biological replicates.
Analysis of the microarray was conducted in two stages; total array data was examined using a linear model and the software limma, and pathway analysis was conducted by linking the potato sequences to the Arabidopsis thaliana. […] The data was corrected for background and normalized between arrays using a loess method. […] The use of limma for analysis of oligo arrays was accomplished by analyzing data from a single emission channel.
The array data was transformed to log base 2 and normalized between arrays using default parameters in GeneMathsXT software package (www.applied-maths.com). […] Pathway Studio 8.0 (www.ariadnegenomics.com) was utilized to determine metabolic changes that were associated with DMN treated for three days compared to controls.

[5] = tested on: potato tubers; conditions: Beveridge et al. 1981; cited from earlier work
[6] = tested on: berries; conditions: freshly harvested berries; copending application; cited from earlier work
[7] = tested on: potato meristems; assay: 3H-thymidine incorporation into DNA of meristems from DMN-treated tubers; format: cell-based, potato (Russet Burbank); conditions: for Thymidine incorporation (labeled thymidine taken up incorporated into DNA): meristems from tubers treated with DMN 3 days at 20° C.
Experimental: On the day of treatment, tubers were transferred from 3° to 20° C. and were immediately washed in running tap water. After drying at room temperature in the dark, the tubers were placed into 4 L airtight containers. A beaker containing about 5 g of activated charcoal was placed in the chamber containing the control tubers prior to sealing (Control). DMN (0.15 mL liquid) was placed on cotton wool in a beaker and sealed in the treatment chamber (DMN3 days). The chambers were incubated in the dark at 20° C. for three days. At this time tubers were removed and the lateral meristems were isolated using a curette with the aid of a dissecting microscope. Either used fresh (thymidine incorporation) or immediately frozen in liquid nitrogen and stored at −80° C., as previously described (Campbell et al., 1996). One group of DMN-treated tubers was incubated for a further two days in air (dark, 20° C.) prior to meristem isolation (DMN3 days+2). Samples were also collected from untreated non-dormant buds at day 0 immediately after removal from 3° C. storage; henceforth referred to as eco-dormant (Lang et al. 1987)
Freshly excised meristems were washed with deionized water and groups of 20 buds were incubated on 1 mL of buffer (10 mM Mes/KOH; pH 5.7) containing 0.9 μCi of ^3H-thymidine (60 μCi/μmole; American Radiolabeled Chemicals Inc., St. Louis, Mo.). The meristems were incubated on an oscillating shaker (100 rpm) at room temperature in the dark. After three hours, meristems were removed from the incubation media, washed extensively with deionized water followed by two washes with incubation buffer containing 5 mM unlabeled thymidine, blotted dry, frozen in liquid nitrogen, and stored at −80° C. To determine incorporation, the frozen meristems were homogenized in 1 mL ice-cold 10% (w/v) TCA. After standing on ice for 3-4 hours, the samples were vigorously mixed. An aliquot was removed and placed in a scintillation vial to determine total uptake. A second equal aliquot was removed and placed on a microfiber filter (GF/C; Whatman). […]

[8] = tested on: potato meristem transcripts; assay: QT-PCR analysis of potato meristem transcripts; format: cell-based, potato (Russet Burbank); conditions: DMN for three days, vs control
Experimental: On the day of treatment, tubers were transferred from 3° to 20° C. and were immediately washed in running tap water. After drying at room temperature in the dark, the tubers were placed into 4 L airtight containers. A beaker containing about 5 g of activated charcoal was placed in the chamber containing the control tubers prior to sealing (Control). DMN (0.15 mL liquid) was placed on cotton wool in a beaker and sealed in the treatment chamber (DMN3 days). The chambers were incubated in the dark at 20° C. for three days. At this time tubers were removed and the lateral meristems were isolated using a curette with the aid of a dissecting microscope. […]
A set of transcripts was selected for further analysis to confirm the microarray data and to determine the possible cell cycle position of tubers treated with DMN. […] Therefore, primers were determined by isolating a longer DNA sequence from the DFCI-Potato Gene Index corresponding to the microarray oligonucleotide and searching that sequence for primers using the Applied Biosystems Primer Express 3.0 software (www.appliedbiosystems.com). cDNA template for QT-PCR was prepared from mRNA isolated from potato meristems treated with DMN for three days as described above. PCR reactions were run on a StepOne™ Real Time System and analyzed using Step One Software v2.0 (www.appliedbiosystems.com) to determine ΔΔCT values on a log10 scale. […]

[9] = DMN three days vs three-day control

Compound: Cc1ccc(C)c2ccccc12 [DMN, 1,4-dimethylnaphthalene]
- effect on sprouting root and tuber crops ([1]; beet, carrot, cassaca, dasheen (taro), ginger, ginseng, horseradish, parsnip, pototato, sweet potato, turnip, yam): effective
- effect on sprouting ornamentals ([1]; flowering bulbs): effective
- effect on sprouting bulb crops ([1]; garlic, leek, onion, shallot): effective
- turgidity and tuber fresh weight [2]: increase in turgidity and maintenance of tuber fresh weight
- ABA levels over control tissues [3]: did not result in an increase in ABA levels
- expression of transcripts that encode cyclin or cyclin-like proteins [4, 9]: decreased expression
- transcripts assigned to water regulation and responses to salt stress [4, 9]: increased
- expression of the Cln1 homolog CYCA1 ([4]; DMN treatment): decrease
- Nucleoside diphosphate kinase (NDPK) transcript ([4]; exposure to DMN): down regulated
- premature sprouting of potato tubers [5]: shown to prevent premature sprouting
- hydration and shelf life of berries [6]: maintain improved hydration
- Thymidine incorporation (labeled thymidine taken up incorporated into DNA) ([7]; Run 1, control 14.3 ± 2.1%): 6.7 ± 0.4%
- Thymidine incorporation (labeled thymidine taken up incorporated into DNA) ([7]; Run 2, control 12.5 ± 0.2%): 6.5 ± 1.0%
- reduction in thymidine incorporation into DNA ([7]; non-dormant tuber meristems following DMN treatment, vs control): about 50%
- transcripts for CDKB1, CYCD3, PCNA, and UTPase (G1/S-phase or early S-phase) [8]: decreased
- transcripts for KRP1, KRP2, MYC2, WRKY, and CYCA3 [8]: elevated
